Consider 34 compounds from the Deep4Chem optical property database.

The structures appear in SMILES notation.

The first data set in a line: solvent given as SMILES. The conditions noted are these: in CCOCC.
Consider `Nc1ccc2c(c1)Cc1ccccc1-2`, for which the emission maximum was determined as 349 nm.

On to `CCCCCCCCCCCCCCCCCCN1C(=O)c2cccc3c(OCCN(C)C)ccc(c23)C1=O`, for which the emission maximum came to 492 nm.

`CN(CC(O)c1cccc(O)c1)c1ccc([N+](=O)[O-])c(C2CC(c3cccc4ccccc34)=NN2c2ccccc2)c1` (stereo unspecified) showed an emission maximum of 497 nm.

The compound `c1ccc(-c2ccc(-c3ccc(-n4c5ccccc5c5ccccc54)cc3)c3nsnc23)cc1` yielded an emission maximum of 504 nm.

The data set is the same for the next values; noted with them: in CN(C)C=O.
For `N#Cc1coc2ccccc2c1=O`, the emission maximum is on record as 494 nm.

With `CCCCCCCCCCCCCCCCCCN1C(=O)c2cccc3c(OCCN(C)C)ccc(c23)C1=O`, the emission maximum amounted to 516 nm.

`Cn1c(/C=C/c2ccc(/C=C/c3nc4ccccc4[nH]3)cc2)[n+](C)c2ccccc21` came in with an emission maximum of 582 nm.

As for `Cc1cc(-c2ccc(-c3ccccc3)cc2)nc(-c2ccc(-n3c4ccccc4c4ccccc43)cc2)n1`, the emission maximum is listed as 474 nm.

Still in this data set, the particulars now being: in CO.
In turn, `Nc1ccc2c(c1)Cc1ccccc1-2` yielded an emission maximum of 367 nm.

`C1=CN2C[n+]3cccc(OCc4ccccc4)c3N=C2C(OCc2ccccc2)=C1` displayed an emission maximum of 487 nm.

As to `N#Cc1coc2ccccc2c1=O`, the emission maximum is given as 415 nm.

For the compound `Cc1ccc(-c2nc(-c3ccc(C#N)cc3)[nH]c2-c2ccc(C)cc2)cc1`, the emission maximum is 447 nm.

In turn, `Cn1c(/C=C/c2ccc(/C=C/c3nc4ccccc4[nH]3)cc2)[n+](C)c2ccccc21` yielded an emission maximum of 567 nm.

As to `CN(CC(O)c1cccc(O)c1)c1ccc([N+](=O)[O-])c(C2CC(c3cccc4ccccc34)=NN2c2ccccc2)c1` (stereo unspecified), the emission maximum is listed as 514 nm.

As to `c1ccc(-c2cc(-c3ccc(N(c4ccccc4)c4ccccc4)cc3)cc(-c3ccccc3)n2)cc1`, the emission maximum is recorded as 524 nm.

`CN(C)c1ccc2c(c1)C(C)(C)C1=CC(=[N+](C)C)C=CC1=C2C#Cc1ccccc1`: the emission maximum came to 705 nm.

The same data set, now with this note: in CS(C)=O.
Regarding `N#Cc1coc2ccccc2c1=O`, the emission maximum is 490 nm.

`C#CCn1c2ccccc2c2cc(/C=C/c3cc(C)c4n3[B-](F)(F)[N+]3=C(C)C=C(C)C3=C4c3ccc(I)cc3)ccc21` returned an emission maximum of 614 nm.

As for `CC1(C)C(/C=C/c2cc3ccc(O)cc3oc2=O)=[N+](CCCS(=O)(=O)[O-])c2ccc(S(=O)(=O)O)cc21`, the emission maximum worked out at 604 nm.

As to `CN(C)c1ccc(/C=C/c2ncnc3ccccc23)cc1`, the emission maximum is 585 nm.

Consider `Cn1c(/C=C/c2ccc(/C=C/c3nc4ccccc4[nH]3)cc2)[n+](C)c2ccccc21`, for which the emission maximum worked out at 584 nm.

The compound `Brc1ccc(-c2nc3sc4ccccc4c3s2)cc1` came in with an emission maximum of 420 nm.

The data set is the same for the next values; noted with them: in Cc1ccccc1.
`O=C(c1ccncc1)c1ccc(-n2c3ccccc3c3cc(-n4c5ccccc5c5ccccc54)ccc32)cc1` showed an emission maximum of 480 nm.

`CCC1=C(C)C2=Cc3c4ccccc4c4n3[B-](c3ccccc3)(Oc3ccccc3-4)[N+]2=C1C` (stereo unspecified) had an emission maximum of 640 nm.

Compound `CC(C)c1cc(C(C)C)c(B2c3ccccc3Oc3cc(N4c5ccccc5C5(c6ccccc6-c6ccccc65)c5ccccc54)ccc32)c(C(C)C)c1` displayed an emission maximum of 456 nm.

On to `COc1cc(OC)cc(C2=[O+][B-](F)(F)OC(c3ccccc3)=C2)c1`, for which the emission maximum was 505.51 nm.

In the case of `CC1(C)c2cccc(-c3nc(-c4ccccc4)nc(-c4ccccc4)n3)c2Oc2c(-n3c4ccccc4c4ccccc43)cccc21`, the emission maximum amounted to 419 nm.

`CN(CC(O)c1cccc(O)c1)c1ccc([N+](=O)[O-])c(C2CC(c3cccc4ccccc34)=NN2c2ccccc2)c1` (stereo unspecified) displayed an emission maximum of 497 nm.

Take `Cc1cc(-c2ccc(-c3ccccc3)cc2)nc(-c2ccc(-n3c4ccccc4c4ccccc43)cc2)n1`: the emission maximum was found to be 386 nm.

Staying with this data set, now noted: in ClC(Cl)Cl.
For the compound `N#Cc1coc2ccccc2c1=O`, the emission maximum was 438 nm.

Turning to `C#CCn1c2ccccc2c2cc(/C=C/c3cc(C)c4n3[B-](F)(F)[N+]3=C(C)C=C(C)C3=C4c3ccc(I)cc3)ccc21`, the emission maximum is 607 nm.

Compound `Cc1ccc(/C2=c3\cc/c(o3)=C(\c3ccc(C)cc3)c3ccc([nH]3)-c3ccc4n3[P-](=O)(=O)[N+]3=C(C=CC3=C4c3ccco3)c3ccc2[nH]3)cc1` showed an emission maximum of 744 nm.

As for `CC1(C)c2cccc(-c3nc(-c4ccccc4)nc(-c4ccccc4)n3)c2Oc2c(-n3c4ccccc4c4ccccc43)cccc21`, the emission maximum was found to be 454 nm.

Regarding `c1ccc(-c2ccnc(-c3ccccc3)n2)cc1`, the emission maximum amounted to 311 nm.

In turn, `CN(CC(O)c1cccc(O)c1)c1ccc([N+](=O)[O-])c(C2CC(c3cccc4ccccc34)=NN2c2ccccc2)c1` (stereo unspecified) showed an emission maximum of 451 nm.

For `Cc1cc(-c2ccc(-c3ccccc3)cc2)nc(-c2ccc(-n3c4ccccc4c4ccccc43)cc2)n1`, the emission maximum turned out to be 416 nm.

Still in this data set, the particulars now being: in ClCCl.
Consider `Nc1ccc2c(c1)Cc1ccccc1-2`, for which the emission maximum turned out to be 353 nm.

For the compound `Cc1ccc(-c2c3nc(c(-c4ccc(C)cc4)c4ccc([nH]4)c(-c4ccc(OC(=O)C(C)c5cccc(C(=O)c6ccccc6)c5)cc4)c4nc(c(-c5ccc(C)cc5)c5ccc2[nH]5)C=C4)C=C3)cc1` (stereo unspecified), the emission maximum is reported as 652 nm.

`CCCCn1c(-c2ccc(-c3nnc(-c4ccc(-c5nc6c7ccccc7c7ccccc7c6n5CCCC)cc4)o3)cc2)nc2c3ccccc3c3ccccc3c21` returned an emission maximum of 451 nm.

`c1ccc(N(c2ccccc2)c2ccc(-c3ccc(-c4cc(-c5ccccn5)nc(-c5ccccn5)c4)cc3)cc2)cc1` had an emission maximum of 489 nm.

Compound `CCCCCCCCCCCCCCCCCCN1C(=O)c2cccc3c(OCCN(C)C)ccc(c23)C1=O` returned an emission maximum of 502 nm.

Regarding `F[B-]1(F)OC(C#Cc2ccccc2)=CC(c2ccccc2)=[O+]1`, the emission maximum was found to be 420 nm.

`c1ccc2c(-c3c4ccccc4c(-c4ccc(-c5ccc(-n6c7ccccc7c7ccccc76)cc5)cc4)c4ccccc34)cccc2c1` registered an emission maximum of 420 nm.

In the case of `CCC1=C(C)C2=Cc3c4ccccc4c4n3[B-](c3ccccc3)(Oc3ccccc3-4)[N+]2=C1C` (stereo unspecified), the emission maximum was 638 nm.

For `COc1cc(OC)cc(C2=[O+][B-](F)(F)OC(c3ccccc3)=C2)c1`, the emission maximum came out at 554 nm.

The compound `CN(C)c1ccc(C2=CC3=C(c4ccc(C#N)cc4)[C@H]4c5ccccc5[C@]3(S2)c2ccccc24)cc1` had an emission maximum of 599 nm.

As for `CN(C)c1ccc(/C=C/c2ncnc3ccccc23)cc1`, the emission maximum came out at 548 nm.

With `O=S1c2ccccc2-c2cc(-c3c4ccccc4cc4ccccc34)ccc21` (stereo unspecified), the emission maximum was determined as 444.61 nm.

For the compound `c1ccc(-c2cc(-c3ccc(N(c4ccccc4)c4ccccc4)cc3)cc(-c3ccccc3)n2)cc1`, the emission maximum is on record as 476 nm.

Compound `CC(C)c1cccc(C(C)C)c1N1C(=O)c2ccc3c(-c4ccc(C(=O)O)cc4)c4c5ccc6c7c(ccc(c(-c8ccc(C(=O)O)cc8)c4c4ccc(c2c34)C1=O)c75)C(=O)N(c1c(C(C)C)cccc1C(C)C)C6=O` gave an emission maximum of 682 nm.

Consider `COC(=O)c1ccc(C2=C(/C=C/c3ccc(OC)cc3)O[B-](F)(F)[O+]=C2/C=C/c2ccc(OC)cc2)cc1`, for which the emission maximum was 557 nm.

The compound `CC[B-]1(CC)c2cccc3c4c5c(cccc5c(c23)-c2cccc(C)[n+]21)[B-](CC)(CC)[n+]1c(C)cccc1-4` registered an emission maximum of 620 nm.

The data set is the same for the next values; noted with them: in O.
Regarding `Nc1ccc2c(c1)Cc1ccccc1-2`, the emission maximum came out at 377 nm.

In the case of `N#Cc1coc2ccccc2c1=O`, the emission maximum was determined as 396 nm.

With `CC1(C)C(/C=C/c2cc3ccc(O)cc3oc2=O)=[N+](CCCS(=O)(=O)[O-])c2ccc(S(=O)(=O)O)cc21`, the emission maximum was 636 nm.

In turn, `Cn1c(/C=C/c2ccc(/C=C/c3nc4ccccc4[nH]3)cc2)[n+](C)c2ccccc21` came in with an emission maximum of 574 nm.

Take `CC/[NH+]=c1\cc2oc3cc(NCCC(=O)O)c4ccccc4c3nc-2cc1C`: the emission maximum is on record as 652 nm.

`CN(CC(O)c1cccc(O)c1)c1ccc([N+](=O)[O-])c(C2CC(c3cccc4ccccc34)=NN2c2ccccc2)c1` (stereo unspecified): the emission maximum was 518 nm.

`Nc1nc2c(ncn2[C@H]2C[C@H](O)[C@@H](CO)O2)c(=O)[nH]1` yielded an emission maximum of 338.98 nm.

`CN(C)c1ccc2c(c1)C(C)(C)C1=CC(=[N+](C)C)C=CC1=C2C#Cc1ccccc1` gave an emission maximum of 708 nm.

The same data set, now with this note: in c1cc(-c2cccc(-n3c4ccccc4c4ccccc43)c2)cc(-n2c3ccccc3c3ccccc32)c1.
For the compound `O=C(c1ccncc1)c1ccc(-n2c3ccccc3c3cc(-n4c5ccccc5c5ccccc54)ccc32)cc1`, the emission maximum was found to be 475.23 nm.
